PubChem BioAssay AID1963872 (Molecular Pharmacology Branch, DTP, NCI, 2024)
“And” between values parts separate entries of the source, which are not always exact repeats. Equal values may be shown once.

Tested on: KRAS patient-derived spheroids with HUVEC/MSC, viability
Experiment: Anticancer human tumor 519858-162-T-J1-PDC patient-derived colon adenocarcinoma cell line growth inhibition [KRAS2]
Details: for viability, T/C: stronger effect = lower value
Source text: Multicellular complex tumor spheroid response to RAS pathway inhibitors in combination with a targeted agents in patient-derived cell lines with oncogenic KRAS variants from multiple cancer types
A high-throughput screen of multi-cell type tumor spheroids was designed to identify active combinations of targeted small molecules and KRAS pathway inhibitors. Complex spheroids include a stromal component modeled by human endothelial cells (HUVEC) and fibroblasts modeled by human mesenchymal stem cells (MSCs). The concentration ranges selected for each drug and investigational agent were based upon clinically achievable concentrations if the clinical Cmax of the agent was known.
Compounds. The drugs and investigational agents: BI-3406 (NSC825286), BAY-293 (NSC824723), batoprotafib (TNO155; NSC825523), sotorasib (AMG 510; NSC818433), MRTX1257 (NSC819558), elimusertib (BAY 1895344; NSC800525), molibresib (GSK525762; NSC774829), temuterkib (LY3214996; NSC803410), venetoclax (NSC766270), alisertib (NSC759677), olaparib (NSC753686), talazoparib (NSC767125), erdafitinib (NSC781556), ipatasertib (NSC767898), cabozantinib (NSC761068), nintedanib (NSC756659), abemaciclib (NSC768073), docetaxel (NSC628503), trametinib (NSC758246), and sapanisertib (NSC764658) were obtained from the National Cancer Institute (NCI) Developmental Therapeutics Program Chemical Repository. The FDA-approved anticancer drug set is available from the Developmental Therapeutics Program. […] The stock solutions were prepared in dimethyl sulfoxide (DMSO, Sigma-Aldrich, St. Louis, MO, cat. D2650) at 800-fold the tested concentration and stored at -70 degrees C prior to their use. All drugs and investigational agents were tested over a range starting from a high concentration at or near the clinical Cmax and decreasing in half-log increments. If the clinical Cmax for an agent had not been determined, the highest concentration tested was 10 microM.
Cell Culture. All cells were maintained in an incubator at 37 degrees C and 5% CO2 with 95% humidity. The PDC lines were cultured according to standard operating procedures established by the NCI PDMR (https://pdmr.cancer.gov/sops/default.htm). Briefly, all PDCs were thawed and cultured in Matrigel-coated flasks prepared with a working solution of 1X Ham's F-12 nutrient mix, without supplementation (Invitrogen, Waltham, MA, cat. 11765054), 100 U/mL penicillin-streptomycin (Invitrogen, cat. 15140122), and 2.5% Matrigel (Corning Inc., Corning, NY, cat. 354248) for the first three passages. All PDCs were cultured in complete DMEM/F-12 media containing advanced DMEM/F-12 (Invitrogen, cat. 12634028), 4.9% defined fetal bovine serum, heat inactivated (HyClone Laboratories Inc., Logan, UT, cat. SH30070.03HI), 389 ng/mL hydrocortisone (Sigma-Aldrich, cat. H4001), 9.7 ng/mL human EGF recombinant protein (Invitrogen, cat. PHG0313), 23.4 microg/mL adenine (Sigma-Aldrich, cat. A2786), 97.3 U/mL penicillin-streptomycin (Invitrogen, cat. 15140122), 1.9 mM L-glutamine (Invitrogen, cat. 25030081), and 9.7 microM Y-27632 dihydrochloride (Tocris Bioscience, Bristol, United Kingdom, cat. 1254). The PDCs were cultured in complete DMEM/F12 media without 9.7 microM Y-27632 dihydrochloride for at least two passages prior to the screen. The established cell line HOP-62 was cultured in RPMI 1640 medium, HEPES (Invitrogen, cat. 22400105) with 10% defined fetal bovine serum (HyClone Laboratories Inc., cat. SH30070.03) and 2 mM L-glutamine (Invitrogen, cat. 25030081). The pooled donor HUVEC were cultured in endothelial cell growth medium 2 (PromoCell, Heidelberg, Germany, cat. C-22011) and the hMSC were cultured in mesenchymal stem cell growth medium 2 (PromoCell, cat. C-28009). For all experiments, HUVEC and hMSC were used at passages </=5, while the malignant cell lines were used at passages </=15. […]

[1] = curve of first compound, second compound 0.1 µM
[2] = curve of first compound, second compound 0.316 µM
[3] = curve of first compound, second compound 1 µM
[4] = curve of first compound, second compound 3.16 µM
[5] = curve of first compound, second compound 10 µM
[6] = second compound 0.1 µM, first compound 0.01 µM
[7] = second compound 0.1 µM, first compound 0.0316 µM
[8] = second compound 0.1 µM, first compound 0.1 µM
[9] = second compound 0.1 µM, first compound 0.316 µM
[10] = second compound 0.1 µM, first compound 1 µM
[11] = second compound 0.1 µM, first compound 3.16 µM
[12] = second compound 0.316 µM, first compound 0.01 µM
[13] = second compound 0.316 µM, first compound 0.0316 µM
[14] = second compound 0.316 µM, first compound 0.1 µM
[15] = second compound 0.316 µM, first compound 0.316 µM
[16] = second compound 0.316 µM, first compound 1 µM
[17] = second compound 0.316 µM, first compound 3.16 µM
[18] = second compound 1 µM, first compound 0.01 µM
[19] = second compound 1 µM, first compound 0.0316 µM
[20] = second compound 1 µM, first compound 0.1 µM
[21] = second compound 1 µM, first compound 0.316 µM
[22] = second compound 1 µM, first compound 1 µM
[23] = second compound 1 µM, first compound 3.16 µM
[24] = second compound 3.16 µM, first compound 0.01 µM
[25] = second compound 3.16 µM, first compound 0.0316 µM
[26] = second compound 3.16 µM, first compound 0.1 µM
[27] = second compound 3.16 µM, first compound 0.316 µM
[28] = second compound 3.16 µM, first compound 1 µM
[29] = second compound 3.16 µM, first compound 3.16 µM
[30] = second compound 10 µM, first compound 0.01 µM
[31] = second compound 10 µM, first compound 0.0316 µM
[32] = second compound 10 µM, first compound 0.1 µM
[33] = second compound 10 µM, first compound 0.316 µM
[34] = second compound 10 µM, first compound 1 µM
[35] = second compound 10 µM, first compound 3.16 µM
[36] = second compound 0.1 µM, first compound 0.00316 µM
[37] = second compound 0.316 µM, first compound 0.00316 µM
[38] = second compound 1 µM, first compound 0.00316 µM
[39] = second compound 3.16 µM, first compound 0.00316 µM
[40] = second compound 10 µM, first compound 0.00316 µM
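Also: compound exposure lasted seven days before readout.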
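For viability, T/C in this document: 100% = DMSO vehicle control viability.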

Compound	IC50 [1]	IC50 [2]	IC50 [3]	IC50 [4]	IC50 [5]	viability, T/C [6]	viability, T/C [7]	viability, T/C [8]	viability, T/C [12]	viability, T/C [13]	viability, T/C [14]	viability, T/C [18]	viability, T/C [19]	viability, T/C [20]	viability, T/C [24]	viability, T/C [25]	viability, T/C [26]	viability, T/C [30]	viability, T/C [31]	viability, T/C [32]	further results
CC(=O)OC12COC1CC(O)C1(C)C(=O)C(O)C3=C(C)C(OC(=O)C(O)C(NC(=O)OC(C)(C)C)c4ccccc4)CC(O)(C(OC(=O)c4ccccc4)C21)C3(C)C (centres undefined) + C=CC(=O)N1CCN(c2nc(=O)n(-c3c(C)ccnc3C(C)C)c3nc(-c4c(O)cccc4F)c(F)cc23)C(C)C1	> 3160 nM	> 3160 nM	> 3160 nM	> 3160 nM	> 3160 nM	121%	80.8%	98.2%	84.7%	68.9%	84.3%	62.8%	80.2%	90.5%	54.7%	74.6%	70%	62.1%	79%	84.5%	viability, T/C [9]: 89.6%; viability, T/C [10]: 72.3%; viability, T/C [11]: 62.1%; viability, T/C [15]: 93.1%; viability, T/C [16]: 77.5%; viability, T/C [17]: 64.7%; viability, T/C [21]: 83.5%; viability, T/C [22]: 74.1%; viability, T/C [23]: 67.8%; viability, T/C [27]: 103%; viability, T/C [28]: 69.7%; viability, T/C [29]: 75.8%; viability, T/C [33]: 68.5%; viability, T/C [34]: 64.8%; viability, T/C [35]: 69.3%
CC1OCC2(CCN(c3cnc(Sc4ccnc(N)c4Cl)c(N)n3)CC2)C1N (centres undefined)	–	–	–	–	–	–	–	–	–	–	–	–	–	–	–	–	–	–	–	–	viability, T/C (compound 0.0316 µM): 81.1% and 93.6% and 89.9%; IC50 (compound alone, run of 07/12/2021): > 10000 nM; IC50 (compound alone, run of 07/19/2021): 9240 nM and > 10000 nM; IC50 (curve of compound): > 10000 nM and 10000 nM
CC1COCCN1c1cc(-c2ccnn2C)c2ccnc(-c3ccn[nH]3)c2n1 (centres undefined) + CNCc1ccccc1-c1csc(C(C)Nc2nc(C)nc3cc(OC)c(OC)cc23)c1	1760 nM	1040 nM	1430 nM	568 nM	< 10 nM	76.8%	90.3%	62.7%	95%	62.8%	83.2%	70.9%	89.8%	95%	64.1%	50.8%	60%	0.21%	0.21%	8.05%	viability, T/C [9]: 82.5%; viability, T/C [10]: 59.9%; viability, T/C [11]: 39.8%; viability, T/C [15]: 68.6%; viability, T/C [16]: 48.7%; viability, T/C [17]: 28.4%; viability, T/C [21]: 79.7%; viability, T/C [22]: 58.8%; viability, T/C [23]: 30.6%; viability, T/C [27]: 70.5%; viability, T/C [28]: 39%; viability, T/C [29]: 20.4%; viability, T/C [33]: 0.31%; viability, T/C [34]: 0.32%; viability, T/C [35]: 0.28%
CCN1CCN(Cc2ccc(Nc3ncc(F)c(-c4cc(F)c5nc(C)n(C(C)C)c5c4)n3)nc2)CC1 + COc1cc2nc(C)nc(NC(C)c3cc(N)cc(C(F)(F)F)c3)c2cc1OC1CCOC1	526 nM	391 nM	391 nM	471 nM	44.6 nM	78.5%	77.2%	74.5%	56%	72.3%	98.2%	80.2%	77.6%	61.8%	51%	48.9%	67.2%	58%	64.8%	38.3%	viability, T/C [36]: 76.9%; viability, T/C [9]: 62.1%; viability, T/C [10]: 34.7%; viability, T/C [37]: 83.8%; viability, T/C [15]: 54.8%; viability, T/C [16]: 29%; viability, T/C [38]: 51.5%; viability, T/C [21]: 55.1%; viability, T/C [22]: 30.1%; viability, T/C [39]: 69.3%; viability, T/C [27]: 73.8%; viability, T/C [28]: 27.4%; viability, T/C [40]: 84%; viability, T/C [33]: 20.2%; viability, T/C [34]: 19.4%
CC(C)n1nc(-c2ccc3oc(N)nc3c2)c2c(N)ncnc21 + CNCc1ccccc1-c1csc(C(C)Nc2nc(C)nc3cc(OC)c(OC)cc23)c1	> 100 nM	> 100 nM	> 100 nM	5.41 nM	< 0.316 nM	72.5%	67%	53.5%	83.2%	66.8%	62.5%	42.7%	73.1%	86.3%	39.8%	49.6%	43.1%	0.32%	0.36%	0.73%	viability, T/C (second compound 0.1 µM, first compound 0.000316 µM): 80.2%; viability, T/C (second compound 0.1 µM, first compound 0.001 µM): 70.6%; viability, T/C [36]: 77.7%; viability, T/C (second compound 0.316 µM, first compound 0.000316 µM): 76.5%; viability, T/C (second compound 0.316 µM, first compound 0.001 µM): 68.5%; viability, T/C [37]: 69.5%; viability, T/C (second compound 1 µM, first compound 0.000316 µM): 91.9%; viability, T/C (second compound 1 µM, first compound 0.001 µM): 69.1%; viability, T/C [38]: 78.2%; viability, T/C (second compound 3.16 µM, first compound 0.000316 µM): 68%; viability, T/C (second compound 3.16 µM, first compound 0.001 µM): 65%; viability, T/C [39]: 55.1%; viability, T/C (second compound 10 µM, first compound 0.000316 µM): 0.52%; viability, T/C (second compound 10 µM, first compound 0.001 µM): 0.58%; viability, T/C [40]: 0.46%
